Values quoted from earlier work, collected in US20250090612A1, “FEED ADDITIVE COMPOSITIONS AND METHODS OF USE” (PMI Nutrition, LLC, priority 2021, published 2025).

Test system: C. elegans
Settings: C. elegans assay

For urolithins, the “concentration needed to obtain a positive effect on muscle function” value is listed as 50 µM and the “concentration required to trigger the muscle function response” value is listed as 11.4 µg/mL.
